For data set [1], the system named is L1210. Briefly: Antiproliferative activity against mouse L1210 cells assessed as inhibition of cell growth. Type of data set: functional, cell-based.
Data set [2] relates to B16. Nature of the data set: Antiproliferative activity against mouse B16 cells assessed as cell growth inhibition. Type of data set: functional, cell-based.
Data set [3] has as its system L1210. Nature of the data set: Antiproliferative activity against mouse L1210 cells assessed as cell growth inhibition measured after 72 hrs by MTT assay. In kind it is functional, cell-based. The following applies: L1210, 72 h. (Tetrazolium dyes change colour on reduction, which living cells bring about.)
Data set [4] has as its system B16. Nature of the data set: Antiproliferative activity against mouse B16 cells assessed as cell growth inhibition measured after 72 hrs by MTT assay. Particulars: B16, 72 h. In kind it is functional, cell-based.
The nature of data set [5]: Antiproliferative activity against human SH-10-TC cells assessed as cell growth inhibition measured after 72 hrs. In kind it is functional, cell-based.
Data set [6] deals with HCT-116. Nature of the data set: Antiproliferative activity against human HCT-116 cells assessed as cell growth inhibition measured after 72 hrs. Type of data set: functional, cell-based. Particulars: HCT-116, 72 h.
Data set [7] deals with A-431. Nature of the data set: Antiproliferative activity against human A-431 cells assessed as cell growth inhibition measured after 72 hrs. Type of data set: functional, cell-based. Particulars: A-431, 72 h.
The test system of data set [8] is DLD-1. Briefly: Antiproliferative activity against human DLD-1 cells assessed as cell growth inhibition measured after 72 hrs. Type of data set: functional, cell-based. Particulars: DLD-1, 72 h.
Data set [9] concerns A549. Nature of the data set: Antiproliferative activity against human A549 cells assessed as cell growth inhibition measured after 72 hrs. In kind it is functional, cell-based. Particulars: A549, 72 h.
In data set [10] the test system is 8505C. Nature of the data set: Antiproliferative activity against human 8505C cells assessed as cell growth inhibition measured after 72 hrs. Type of data set: functional, cell-based.
For data set [11], the system named is Huh-7. Briefly: Antiproliferative activity against human Huh-7 cells assessed as cell growth inhibition measured after 72 hrs. Particulars: Huh-7, 72 h. Type of data set: functional, cell-based.
Data set [12] is described as follows: Antiproliferative activity against human OVK18 cells assessed as cell growth inhibition measured after 72 hrs. In kind it is functional, cell-based. The following applies: OVK18, 72 h.
For data set [13], the system named is DLD-1. Briefly: Antiproliferative activity against human DLD-1 cells assessed as cell growth inhibition measured after 96 hrs. In kind it is functional, cell-based. Particulars: DLD-1, 96 h.
The subject of data set [14] is GCIY. Nature of the data set: Antiproliferative activity against human GCIY cells assessed as cell growth inhibition measured after 72 hrs. In kind it is functional, cell-based.
Data set [15] deals with ACHN. Nature of the data set: Antiproliferative activity against human ACHN cells assessed as cell growth inhibition measured after 72 hrs. Type of data set: functional, cell-based.
For data set [16], the system named is MCF7. Briefly: Antiproliferative activity against human MCF7 cells assessed as cell growth inhibition measured after 72 hrs. In kind it is functional, cell-based. The following applies: MCF7, 72 h.
Data set [17] in a line: Antiproliferative activity against human PK-1 cells assessed as cell growth inhibition measured after 72 hrs. In kind it is functional, cell-based. The following applies: PK-1, 72 h.
The test system of data set [18] is HuCCT-1. Nature of the data set: Antiproliferative activity against human HuCCT-1 cells assessed as cell growth inhibition measured after 72 hrs. Type of data set: functional, cell-based. Particulars: HuCCT-1, 72 h.
Data set [19] concerns G-361. Briefly: Antiproliferative activity against human G-361 cells assessed as cell growth inhibition measured after 72 hrs. Particulars: G-361, 72 h. Type of data set: functional, cell-based.
The test system of data set [20] is PC-3. Nature of the data set: Antiproliferative activity against human PC-3 cells assessed as cell growth inhibition measured after 72 hrs. Type of data set: functional, cell-based. Particulars: PC-3, 72 h.
In data set [21] the test system is MDA-MB-231. Nature of the data set: Antiproliferative activity against lung metastasis variant of human MDA-MB-231 cells assessed as cell growth inhibition. Type of data set: functional, cell-based.
Data set [22] has as its system HCC1419. Nature of the data set: Antiproliferative activity against human HCC1419 cells assessed as cell growth inhibition. Type of data set: functional, cell-based.
For data set [23], the system named is MCF7. Briefly: Antiproliferative activity against human MCF7 cells assessed as cell growth inhibition. Type of data set: functional, cell-based.
Data set [24] relates to MDA-MB-231. Nature of the data set: Antiproliferative activity against human MDA-MB-231 cells assessed as cell growth inhibition. Type of data set: functional, cell-based.
Data set [25] is described as follows: Antiproliferative activity against human MCF-10A cells assessed as cell growth inhibition. In kind it is toxicity, cell-based.
Data set [26] has as its system MDA-MB-231. Nature of the data set: Growth inhibition of human MDA-MB-231 cells measured after 72 hrs by microplate reader analysis. In kind it is functional.
Data set [27] relates to HUVEC. Nature of the data set: Anti-angiogenesis activity in HUVEC cells assessed as cell growth inhibition. Type of data set: functional, cell-based. Particulars: Homo sapiens.
A short description of data set [28]: Anti-angiogenesis activity in […] MS-1 cells assessed as cell growth inhibition. Type of data set: functional, cell-based.
Data set [29] relates to RPMI-7951. Briefly: Growth inhibition of human RPMI-7951 cells measured after 72 hrs by microplate reader analysis. Type of data set: functional, cell-based. Particulars: RPMI-7951, 72 h.
For data set [30], the system named is SVR. Briefly: Anti-angiogenesis activity in mouse SVR cells assessed as cell growth inhibition. In kind it is functional, cell-based.
The test system of data set [31] is HUVEC. Nature of the data set: Anti-angiogenesis activity in HUVEC cells. In kind it is functional, cell-based. The following applies: Homo sapiens.
A short description of data set [32]: Cytotoxicity activity against mouse SVR cells assessed as cell growth inhibition at 6 ug/ml relative to control. Particulars: at 6 µg/mL. Type of data set: toxicity, cell-based.
A short description of data set [33]: Cytotoxicity activity against mouse SVR cells assessed as cell growth inhibition at 4 ug/ml relative to control. In kind it is toxicity, cell-based. The following applies: at 4 µg/mL.
Data set [34] has as its system AGS. Briefly: Antiproliferative activity against human AGS cells assessed as cell growth inhibition measured upto 72 hrs by MTT assay. In kind it is functional, cell-based.
In data set [35] the test system is KYSE-30. Nature of the data set: Antiproliferative activity against human KYSE-30 cells assessed as cell growth inhibition measured upto 72 hrs by MTT assay. Type of data set: functional, cell-based. Particulars: KYSE-30, 72 h.

The record followed here is ChEMBL document CHEMBL5244235, “Diarylpentanoids with antitumor activity: A critical review of structure-activity relationship studies” (Eur J Med Chem, 2020).

Structures are written as SMILES. Where only a bound is given, the exact number is not on record here.

Consider `O=C1/C(=C/c2cccc(O)c2)CNC/C1=C\c1cccc(O)c1`, for which the figures for the IC50 in data set [1] and in data set [2] were 300 nM and 200 nM, respectively.

As for `O=C1/C(=C/c2ccc([N+](=O)[O-])cc2)CC(c2ccccc2)C/C1=C\c1ccc([N+](=O)[O-])cc1` (configuration not stated), the IC50 in [3] amounted to 350 nM; in [4] it was 1600 nM.

Take `COc1cc(/C=C2\CC(c3ccccc3)C/C(=C\c3cc(OC)c(OC)c(OC)c3)C2=O)cc(OC)c1OC` (configuration not stated): the half-maximal inhibitory concentration (IC50) in data set [3] was 120 nM; in data set [4], 510 nM.

For the molecule `C=C1CC2CC(C1)/C(=C\c1ccc(OC)c(OC)c1)C(=O)/C2=C/c1ccc(OC)c(OC)c1`, the half-maximal inhibitory concentration (IC50) in [5], in data set [6], in [7], in data set [8], in [9] and in [10] was above 50000 nM each time. Also, the 50% inhibitory concentration (IC50) is above 50000 nM in [11]; above 50000 nM in data set [12]; 8000 nM in data set [13]; above 50000 nM in data set [14]; above 50000 nM in [15]; above 50000 nM in data set [16]. Besides, the concentration for half-maximal inhibition (IC50) in [17], in [18], in data set [19] and in [20] was above 50000 nM throughout.

Consider `CCN(CC)CCOc1ccc(C(=O)N2C/C(=C\c3ccccc3)C(=O)/C(=C/c3ccccc3)C2)cc1`, for which the concentration for half-maximal inhibition (IC50) in [21] turned out to be 530 nM; in data set [22], 1460 nM; in data set [23], 1640 nM; in data set [24], 720 nM; in data set [25], 41000 nM.

The molecule `CN1C/C(=C\c2ccccc2O)C(=O)/C(=C/c2ccccc2O)C1` gave a GI50 in data set [26] of 900 nM. For the same molecule, the IC50 in data set [27] came to 1100 nM; in data set [28], 1100 nM; in data set [29] it was 900 nM; in data set [30], 1100 nM.

Molecule `COCOc1cc(/C=C/C(=O)CC(SCC(=O)OC)c2cc(OCOC)cc(OCOC)c2)cc(OCOC)c1` (configuration not stated) registered an IC50 in [31] of 400 nM.

Regarding `O=C(/C=C/c1ccccc1)/C=C/c1ccccc1`, the inhibition at 6 ug/ml in data set [32] is 90.4%. The inhibition at 4 ug/ml in [33] worked out at 87.1%.

In the case of `O=C(/C=C/c1c(Cl)cccc1Cl)/C=C/c1c(Cl)cccc1Cl`, in [32], the inhibition at 6 ug/ml was 90.4%. In addition, in [33], the inhibition at 4 ug/ml was 87.1%.

For the molecule `CCN(CC)CCOc1cccc(C(=O)N2C/C(=C\c3ccccc3)C(=O)/C(=C/c3ccccc3)C2)c1`, the IC50 in [21] was 530 nM; in [22], 1460 nM; in data set [23], 1640 nM; in [24], 720 nM; in data set [25] it was 41000 nM.

Regarding `COc1cc(/C=C2\CNC/C(=C\c3cc(OC)cc(OC)c3)C2=O)cc(OC)c1`, the IC50 in [2] amounted to 200 nM.

In the case of `CCOc1ccc(/C=C2\CCC/C(=C\c3ccc(OCC)c(OC)c3)C2=O)cc1OC`, the IC50 in [34] turned out to be 720 nM; in data set [35], 3400 nM.

On to `C#CCOc1ccc(/C=C2\CCC/C(=C\c3ccc(OCC#C)cc3)C2=O)cc1`, for which the concentration for half-maximal inhibition (IC50) was 720 nM in data set [34] and 3400 nM in data set [35].

By IC50 is commonly meant the concentration needed to halve the response being measured. What is called GI50 is the concentration that inhibits growth by half. By inhibition is commonly meant the percentage by which the read-out fell short of the control.
